Measurements from patent publication US20230149419A1, “COMPOSITION FOR PREVENTING OR TREATING NEUROINFLAMMATORY DISEASES, COMPRISING CHLORPROMAZINE” (GliaCellTech Inc., priority 2020, published 2023).

Tests used:
[1] = system: primary microglia from wild-type mice; experiment: LPS-induced inflammatory cytokine secretion in primary microglia (ELISA), wild-type; format: cell-based, mouse
Procedure: (§1) Primary microglia were obtained from wild-type mice and Psen2^N141I/+ mice with Alzheimer's disease. Specifically, brains were excised from neonatal mice 1 to 3 days old and cells were obtained therefrom. The cells were cultured in Dulbecco's modified Eagle's medium (DMEM, Corning) supplemented with 10% heat-inactivated fetal bovine serum (HI-FBS, Hyclone) and 1% penicillin-streptomycin (Hyclone). Primary microglia were isolated in vitro by tapping after 12 days of culturing. Purity of primary microglia was estimated by immunostaining with an antibody against Iba-1, which is a microglial marker.
(§2) In this regard, the primary microglia were preincubated with or without 0.5 μM chlorpromazine for 30 min before LPS treatment. Anti-inflammatory effects were compared and analyzed between the test groups.

[2] = system: primary microglia from wild-type mice; experiment: LPS-induced cytokine mRNA expression in primary microglia (qRT-PCR), wild-type; format: cell-based, mouse
Procedure: as §1, §2
The culture of each group was measured for microglial mRNA expression levels of the target cytokines by qRT-PCR (quantitative RT-PCR). Specifically, RNA was isolated from the microglia and cDNA was synthesized using an ImProm-II Reverse Transcriptase kit (Promega). PCR primers were commercially available (Cosmo Genetech). qRT-PCR was performed using Taq Polymerase (Invitrogen) and mouse cDNA-specific primers listed in Table 6, below. In addition, TOPreal™ qPCR 2×PreMIX (SYBR Green with low ROX) (Enzynomics) was used. Amplification (50 cycles) was performed for 50 cycles with all primers in a CFX96 Real-Time System (Bio-Rad). Actb was used as the reference genes for normalization.

[3] = system: primary microglia from Psen2 mutation mouse model of Alzheimer's disease; experiment: IL-1β secretion after LPS and inflammasome activation (nigericin/ATP), Psen2 mutation microglia; format: cell-based; conditions: for IL-1β secreted: chlorpromazine 30 min, LPS 1 μg/mL 3 h
Procedure: as §1
IL-1β is a cytokine released from an activated inflammasome complex in microglia. For secretion of the cytokine, additional treatment with a drug for inducing activation of the inflammasome complex is necessary following LPS-induced inflammation. […] Application of the test groups thus obtained could divide groups 5 to 8 of Example 5-2 into 10 subgroups according to treatment with nigericin and ATP.

[4] = system: Nr1d1 mRNA in primary microglia from Psen2 mouse model of Alzheimer's disease; experiment: Nr1d1 mRNA expression in primary microglia (qRT-PCR), Psen2 mutation; format: cell-based
Procedure: Effects were analyzed in the experimental group not treated with chlorpromazine on the obtained microglia and the experimental group treated with chlorpromazine at a dose of 0.5 μM.

[5] = system: REV-ERBα protein in primary microglia from Psen2 mouse model of Alzheimer's disease; experiment: REV-ERBα protein expression in primary microglia (western blotting), Psen2 mutation; format: cell-based
Procedure: Effects were analyzed in the experimental group not treated with chlorpromazine on the obtained microglia and the experimental group treated with chlorpromazine at a dose of 0.5 μM. For analysis of REV-ERBα protein expression levels, western blotting was carried out. Specifically, primary microglia were lysed in a 1% Triton X-100 lysis buffer (1% Triton X-100, 250 mM sucrose, 1 mM EDTA, 1 mM phenylmethylsulfonyl fluoride, and 50 mM NaCl in 20 mM Tris-HCl, pH 7.4) with 1×protease and phosphatase inhibitors (Thermo Fisher Scientific) and 0.1 M dithiothreitol (Sigma-Aldrich). The cell lysates were separated by sodium dodecyl sulfate-polyacrylamide gel electrophoresis and transferred to polyvinylidene fluoride membranes. The membranes were incubated with the appropriate primary antibodies, and bound antibodies were detected by species-specific, horseradish peroxidase-conjugated secondary antibodies. Chemiluminescence detection was performed to analyze the protein bands of interest.

[6] = system: Psen2 mutation mouse model of Alzheimer's disease; experiment: Y-maze test, Psen2 mutation mouse model of Alzheimer's disease; format: in vivo; conditions: for Y-maze Alternation % / Y-maze No. of Arm entry: chlorpromazine 0.25 mg/kg i.p., mean±SEM
Procedure: Specifically, the Y-maze was used to evaluate spatial working memory. The assay was conducted in white plastic arms of a Y-shaped maze. A mouse was placed in the center of the maze and was allowed to freely explore the arms for 5 min. The experiment was recorded with EthoVision software (Noldus). The number of arm entries and the number of triads were analyzed to calculate the percentage of alternation by dividing the number of three consecutive arm entries (triads) by the number of possible triads×100 (total arm entries−2).
An examination was made to see whether LPS-induced inflammation causes memory decline and chlorpromazine reverses the LPS-induced inflammation in disease animal models. To analyze memory and behavior performance, the Y-maze test as in Example 4 was conducted.

[7] = system: elderly with schizophrenia; conditions: taken for a long time at the current market dose; cited from earlier work
wild-type mice = experiment: Serum cytokine levels after low-concentration LPS injection, wild-type mice
Procedure: (§3) To investigate neuroinflammation at various concentrations of LPS, blood was extracted from cheek veins in the wild-type mice in group 2 and the mouse model of Alzheimer's disease in group 4 20 hours after the injection of LPS. The sera obtained by centrifugation were quantitatively analyzed for IL-6, TNFα, CCL2, CXCL1, and CCL5 by using ELISA kit (R&D Systems) according to the manufacturer's instruction. In addition, the same procedure was conducted for the wild-type mice without LPS injection of group 1 and the Psen2^N141I mutation mouse model of Alzheimer's disease of group 3 to obtain sera which were then analyzed for the proteins by using the ELISA kit according to the manufacturer's instruction.
(§4) The wild-type mice and the Psen2 mutation mouse model of Alzheimer's disease obtained in Example 1 were intraperitoneally injected with chlorpromazine (0.25 mg/body weight kg) at 14:00 and then with such a low concentration of LPS (0.35 μg/kg) as to be ineffective for inflammation in wild-type mice at 18:00 (Zeitgeber time light-on at 11:00 and 07:00). After 20 hours, the mice were monitored for inflammatory responses and memory behavior. The concentration of chlorpromazine (0.25 mg/body weight kg) used in this assay is tens- to hundreds-fold lower than those conventionally used as an antipsychotic (25 mg/injection, 3 times/day).
(§5) After the experiment conducted as in the scheme of FIG. 11A, the wild-type and the Psen2^N141I/+ Alzheimer's disease mice, both intraperitoneally injected with LPS, were analyzed for inflammatory response according to chlorpromazine treatment as measured for serum levels of the circadian clock-controlled cytokines (IL-6, CXCL1, CCL2, and CCL5) by ELISA as in Example 2.

[8] = system: Psen2^N141I/+ Alzheimer's disease mice; experiment: Serum cytokine levels after low-concentration LPS injection, Psen2 mutation mice
Procedure: as §3, §4, §5

[9] = WT microglia, LPS 1 μg/mL 12 h, preincubated 0.5 μM chlorpromazine 30 min (Group 6)
[10] = WT microglia, LPS 1 μg/mL 12 h, 0.5 μM chlorpromazine (Group 6)
[11] = KI/+ microglia, no LPS, 0.5 μM chlorpromazine (Group 30), mean±SEM
[12] = Psen2 mutation microglia, group 30, chlorpromazine 0.5 μM
[13] = Alzheimer's disease model/LPS(+)/CPZ(+) (Group 48), LPS 0.35 μg/kg
[14] = Alzheimer's disease model/LPS(−)/CPZ(+) (Group 46)
[15] = chlorpromazine 0.25 mg/kg i.p., LPS 0.35 μg/kg i.p., 20 h after LPS (Group 38)
[16] = Alzheimer's disease model mice, chlorpromazine 0.25 mg/kg i.p., LPS 0.35 μg/kg i.p., 20 h after LPS (Group 40)

CN(C)CCCN1c2ccccc2Sc2ccc(Cl)cc21 [CPZ, 3-(2-chloro-10H-phenothiazin-10-yl)-N,N-dimethyl-propan-1-amine]
Inflammatory cytokine secreted CCL2 [1, 9]: 948.716 pg/mL | Inflammatory cytokine secreted CCL5 [1, 9]: 948.716 pg/mL | Inflammatory cytokine secreted CXCL1 [1, 9]: 937.727 pg/mL | Inflammatory cytokine secreted TNF-α [1, 9]: 1414.237 pg/mL | Inflammatory cytokine secreted IL-6 ([1]; WT microglia, LPS 1 μg/mL 12 h, preincubated 0.5 μM chlorpromazine 30 min (Group 6), mean): 2228.546 pg/mL | protein levels of circadian clock-controlled cytokines (in words) ([1]; wild-type microglia, groups 5 and 6, chlorpromazine 0.5 μM, LPS): not affected | Inflammatory cytokine expression Ccl2 (mRNA) [2, 10]: 0.907 fold | Inflammatory cytokine expression Ccl5 (mRNA) [2, 10]: 1.113 fold | Inflammatory cytokine expression Cxcl1 (mRNA) [2, 10]: 0.968 fold | Inflammatory cytokine expression Tnf (mRNA) [2, 10]: 1.066 fold | Inflammatory cytokine expression Il-6 (mRNA) ([2]; WT microglia, LPS 1 μg/mL 12 h, 0.5 μM chlorpromazine (Group 6), normalized to Actb): 0.947 fold | mRNA levels of circadian clock-controlled cytokines (in words) ([2]; wild-type microglia, groups 5 and 6, LPS): not affected | IL-1β secreted ([3]; Psen2 mutation microglia (Group 20), Nig(+)/ATP(−), nigericin 10 μM 40 min): 946.122 pg/mL | IL-1β secreted ([3]; Psen2 mutation microglia (Group 22), Nig(−)/ATP(+), ATP 5 mM 40 min): 1186.118 pg/mL | production of IL-1β (in words) ([3]; across all the groups (WT and Psen2 mutation microglia), LPS plus nigericin or ATP): no impacts | Nr1d1 mRNA expression [4, 11]: 0.976 ± 0.094 fold | Nr1d1 mRNA expression level (in words) [4, 12]: restored to the level in the wild-type group | REV-ERBα protein expression [5, 11]: 0.882 ± 0.032 fold | REV-ERBα protein expression level (in words) [5, 12]: restored to the level in the wild-type group | Y-maze Alternation % [6, 13]: 72.000 ± 3.964% | Y-maze No. of Arm entry [6, 13]: 16.500 ± 1.368 | Y-maze Alternation % [6, 14]: 77.714 ± 4.699% | Y-maze No. of Arm entry [6, 14]: 18.286 ± 1.063 | LPS-induced memory decline, arm alternation in Y-maze (in words) ([6]; LPS-injected Psen2 mutation mouse model, group 48): sufficient recovery | memory performance, arm alternation in Y-maze (in words) ([6]; Psen2 mutation mice, chlorpromazine alone vs no drug treatment): no significant different memory performance | side effect on mortality [7]: increasing the mortality rate | Inflammatory cytokine secreted IL-6 (serum) (wild-type mice; chlorpromazine 0.25 mg/kg i.p. 4 h before LPS 0.35 μg/kg i.p., 20 h after LPS (Group 38)): 68.214 pg/mL | Inflammatory cytokine secreted CCL2 (serum) (wild-type mice; [15]): 117.032 pg/mL | Inflammatory cytokine secreted CCL5 (serum) (wild-type mice; [15]): 80.808 pg/mL | Inflammatory cytokine secreted CXCL1 (serum) (wild-type mice; [15]): 172.313 pg/mL | Inflammatory cytokine secreted TNF-α (serum) (wild-type mice; [15]): 62.634 pg/mL | production of the circadian clock-controlled cytokines in serum (in words) (wild-type mice; groups 37 and 38, LPS 0.35 μg/kg): did not affect | Inflammatory cytokine secreted CCL2 (serum) [8, 16]: 107.403 pg/mL | Inflammatory cytokine secreted CCL5 (serum) [8, 16]: 93.240 pg/mL | Inflammatory cytokine secreted CXCL1 (serum) [8, 16]: 173.999 pg/mL | Inflammatory cytokine secreted IL-6 (serum) [8, 16]: 44.280 pg/mL | Inflammatory cytokine secreted TNF-α (serum) [8, 16]: 71.248 pg/mL | production of the circadian clock-controlled cytokines in serum (in words) ([8]; Psen2 mutation mice, group 40 vs 39, LPS 0.35 μg/kg): remarkably repressed
